From patent US7932252B2, “Aryl sulfonamides” (ChemoCentryx, Inc., priority 2004, dated 2011) come the findings set out here.

The structures appear in SMILES notation.

One test concerns the target T1, CCR9 (Homo sapiens, UniProt P51686).
T1 construct: CCR9-expressing cells (such as a T cell line MOLT-4 cells); host or cells: MOLT-4
T1 sequence (P51686 1-369): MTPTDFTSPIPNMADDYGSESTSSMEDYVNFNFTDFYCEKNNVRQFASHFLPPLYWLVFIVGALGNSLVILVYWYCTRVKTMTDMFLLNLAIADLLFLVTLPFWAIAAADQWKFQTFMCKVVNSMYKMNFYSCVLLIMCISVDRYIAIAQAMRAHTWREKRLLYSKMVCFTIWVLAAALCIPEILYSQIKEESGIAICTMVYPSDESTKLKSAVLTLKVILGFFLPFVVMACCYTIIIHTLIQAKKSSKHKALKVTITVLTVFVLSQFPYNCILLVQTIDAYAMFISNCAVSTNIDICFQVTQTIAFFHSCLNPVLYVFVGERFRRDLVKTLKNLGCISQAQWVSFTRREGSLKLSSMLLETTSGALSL
The experiment in a line: chemotaxis (conventional migration) assay and/or calcium mobilization (calcium flux) assay, TECK-induced, MOLT-4 cells. It counts as cell-based. The note with it: Table 1, assay not specified per compound, read-out: IC50, activity in either or both of the chemotaxis assay and calcium mobilization assays. Here is the method: MOLT-4 cells were obtained from the American Type Culture Collection (Manassas, Va.) and cultured in RPMI tissue culture medium supplemented with 10% fetal calf serum (FCS) in a humidified 5% CO2 incubator at 37° C. Recombinant human chemokine protein TECK was obtained from R&D Systems (Minneapolis, Minn.). ChemoTX® chemotaxis microchambers were purchased from Neuro Probe (Gaithersburg, Md.). CyQUANT® cell proliferation kits were purchased from Molecular Probes (Eugene, Oreg.). Calcium indicator dye Fluo-4 AM was purchased from Molecular Devices (Mountain View, Calif.).
Conventional migration assay was used to determine the efficacy of potential receptor antagonists in blocking migration mediated through CCR9. This assay was routinely performed using the ChemoTX® microchamber system with a 5-μm pore-sized polycarbonate membrane. To begin such an assay, MOLT-4 cells were harvested by centrifugation of cell suspension at 1000 PRM on a GS-6R Beckman centrifuge. The cell pellet was resuspended in chemotaxis buffer (HBSS with 0.1% BSA) at 5×10^6 cells/mL. Test compounds at desired concentrations were prepared from 10 mM stock solutions by serial dilutions in chemotaxis buffer. An equal volume of cells and compounds were mixed and incubated at room temperature for 15 minutes. Afterwards, 20 μL of the mixture was transferred onto the porous membrane of a migration microchamber, with 29 μL of 50 nM chemokine TECK protein placed at the lower chamber. Following a 150-minute incubation at 37° C., during which cells migrated against the chemokine gradient, the assay was terminated by removing the cell drops from atop the filter. To quantify cells migrated across the membrane, 5 μL of 7× CyQUANT® solution was added to each well in the lower chamber, and the fluorescence signal measured on a Spectrafluor Plus fluorescence plate reader (TECAN, Durham, N.C.). The degree of inhibition was determined by comparing migration signals between compound-treated and untreated cells. IC50 calculation was further performed by non-linear squares regression analysis using Graphpad Prism (Graphpad Software, San Diego, Calif.).
Calcium flux assay measures an increase in intracellular calcium following ligand-induced receptor activation. In the screen of CCR9 antagonists, it was used as a secondary assay carried out on a FLIPR® machine (Molecular Devices, Mountain View, Calif.). To begin an assay, MOLT-4 cells were harvested by centrifugation of cell suspension, and resuspended to 1.5×10^6 cells/mL in HBSS (with 1% fetal calf serum). Cells were then labeled with a calcium indicator dye Fluo-4 AM for 45 minutes at 37° C. with gentle shaking. Following incubation, cells were pelletted, washed once with HBSS and resuspended in the same buffer at a density of 1.6×10^6 cells/mL. One hundred microliters of labeled cells were mixed with 10 μL of test compound at the appropriate concentrations on an assay plate. Chemokine protein TECK was added at a final concentration of 25 nM to activate the receptor. The degree of inhibition was determined by comparing calcium signals between compound-treated and untreated cells. IC50 calculations were further performed by non-linear squares regression analysis using Graphpad Prism (Graphpad Software, San Diego, Calif.).
Activity is provided as follows for either or both of the chemotaxis assay and/or calcium mobilization assays, described above.
(Calcium assays in cells follow changes in intracellular calcium, usually with a dye or a luminescent sensor.)
On to `CO/N=C(\c1ccncc1)c1cc(Cl)ccc1NS(=O)(=O)c1ccc(C(C)(C)C)cc1`, for which the IC50 (usually the concentration that gives 50% inhibition) is < 500 nM.
Consider `CC(C)(C)c1ccc(S(=O)(=O)Nc2ccc(Cl)cc2C(O)c2ccncc2)cc1` (stereo not drawn), for which the IC50 was < 500 nM.
Turning to `CC(C)(C)c1ccc(S(=O)(=O)Nc2ccc(Cl)cc2C(O)c2ccccc2)cc1` (stereo not drawn), the concentration for half-maximal inhibition (IC50) was < 500 nM.
Same read-out and setting: the result for `CC(=O)N(c1ccncc1)c1cc(Cl)ccc1NS(=O)(=O)c1ccc(C(C)(C)C)cc1` reads < 500 nM; that for `CC(C)(C)c1ccc(S(=O)(=O)Nc2ccc(Cl)cc2Nc2ccncc2)cc1`, < 500 nM; that for `CC(C)(C)c1ccc(S(=O)(=O)Nc2ccc(Cl)cc2C(F)(F)c2ccncc2)cc1`, < 500 nM.
For `CC(C)(C)c1ccc(S(=O)(=O)Nc2ccc(Cl)cc2C(O)c2cc[n+]([O-])cc2)cc1` (stereo not drawn), the concentration for half-maximal inhibition (IC50) is < 500 nM.
In the case of `C=C(c1cc[n+]([O-])cc1)c1cc(Cl)ccc1NS(=O)(=O)c1ccc(C(C)(C)C)cc1`, the IC50 is < 500 nM.
`CC(C)(C)c1ccc(S(=O)(=O)Nc2ccc(Cl)cc2C(O)c2cccnc2)cc1` (stereo not drawn): the IC50 was < 500 nM.
`CCc1ccc(S(=O)(=O)Nc2ccc(Cl)cc2C(O)c2ccncc2)cc1` (stereo not drawn): the IC50 was < 500 nM.
Same read-out and setting: the result for `CC(C)(C)c1ccc(S(=O)(=O)Nc2ccc(Cl)cc2C(N)c2cc[n+]([O-])cc2)cc1` (stereo not drawn) reads < 500 nM; that for `C=CC(O)(c1cc[n+]([O-])cc1)c1cc(Cl)ccc1NS(=O)(=O)c1ccc(C(C)(C)C)cc1` (stereo not drawn), < 500 nM; that for `CC(C)(C)c1ccc(S(=O)(=O)Nc2ccc(Cl)cc2C(F)(F)c2cc[n+]([O-])cc2)cc1`, < 500 nM.
Consider `O=S(=O)(Nc1ccc(Cl)cc1C(O)c1ccncc1)c1ccc(-c2cnco2)cc1` (stereo not drawn), for which the IC50 was < 500 nM.
Same read-out and setting: the result for `CO/N=C(/c1ccncc1)c1cc(Cl)ccc1NS(=O)(=O)c1ccc(C(C)(C)C)cc1` reads < 500 nM; that for `CC(C)Oc1ccc(S(=O)(=O)Nc2ccc(Cl)cc2C(O)c2ccncc2)cc1` (stereo not drawn), < 500 nM.

The test is the same for the next values; noted with them: Table 2, assay not specified per compound, read-out: IC50, activity in either or both of the chemotaxis assay and calcium mobilization assays.
With `CC(C)(C)c1ccc(S(=O)(=O)Nc2ccc(Cl)cc2-c2nnn[nH]2)cc1`, the IC50 was < 2000 nM.
On to `CC(C)(C)c1ccc(S(=O)(=O)Nc2ccc(Cl)cc2-c2cc3ccccc3cn2)cc1`, for which the IC50 was < 2000 nM.
`O=S(=O)(Nc1ccc(Cl)cc1-c1nccc2ccccc12)c1ccc(-c2cnco2)cc1`: the IC50 was < 2000 nM.
Take `CC(C)(C)c1ccc(S(=O)(=O)Nc2ccc(Cl)cc2-c2c3ccccc3cc[n+]2[O-])cc1`: the half-maximal inhibitory concentration (IC50) is < 2000 nM.
Take `CC(C)(C)c1ccc(S(=O)(=O)Nc2ccc(Cl)cc2-c2nccc3c[n+]([O-])ccc23)cc1`: the 50% inhibitory concentration (IC50) was < 2000 nM.
On to `CC(C)(C)c1ccc(S(=O)(=O)Nc2ccc(Cl)cc2-c2ccccn2)cc1`, for which the IC50 was < 2000 nM.
On to `CC(C)(C)c1ccc(S(=O)(=O)Nc2ccc(Cl)cc2-c2nccc3ccccc23)cc1`, for which the IC50 is < 2000 nM.

The same test, now with this note: Table 3, assay not specified per compound, read-out: IC50, activity in either or both of the chemotaxis assay and calcium mobilization assays.
Regarding `CN(C)C(c1ccncc1)c1cc(Cl)ccc1NS(=O)(=O)c1ccc(C(C)(C)C)cc1` (stereo not drawn), the IC50 is 500 to 5000 nM.
Take `CO/N=C(\c1ccccc1)c1cc(Cl)ccc1NS(=O)(=O)c1ccc(C)cc1`: the IC50 lay in the range of 500 to 5000 nM.
The same measure, in the same setting: the result for `CC(C)(C)c1ccc(S(=O)(=O)Nc2ccc(Cl)cc2C2(c3cc[n+]([O-])cc3)OCCO2)cc1` reads 500 to 5000 nM; that for `CC(C)(C)c1ccc(S(=O)(=O)Nc2ccc(Cl)cc2C(C)(O)c2cc[n+]([O-])cc2)cc1` (stereo not drawn), 500 to 5000 nM; that for `CC(=O)c1ccc(S(=O)(=O)Nc2ccc(Cl)cc2C(O)c2cccnc2)cc1` (stereo not drawn), 500 to 5000 nM.
Turning to `COC(c1cc[n+]([O-])cc1)c1cc(Cl)ccc1NS(=O)(=O)c1ccc(C(C)(C)C)cc1` (stereo not drawn), the IC50 fell in the range of 500 to 5000 nM.
On the same count and under the same terms, in the case of `CC(C)(C)c1ccc(S(=O)(=O)Nc2ccc(Cl)cc2C(C)(C)c2cc[n+]([O-])cc2)cc1` it was 500 to 5000 nM.
Still for that read-out and setting: in the case of `C=C(c1ccccc1)c1cc(Cl)ccc1NS(=O)(=O)c1ccc(C)cc1` it was 500 to 5000 nM.

Staying with this test, now noted: Table 4 (++), assay not specified per compound, read-out: IC50, activity in either or both of the chemotaxis assay and calcium mobilization assays.
`COc1ccc(S(=O)(=O)Nc2ccc(Cl)cc2-c2ccccc2)cc1`: the IC50 lay within 2000 to 10000 nM.
Consider `COc1ccc(S(=O)(=O)Nc2ccc(Cl)cc2-c2ccccc2OC)cc1`, for which the IC50 was 2000 to 10000 nM.
In the case of `COc1ccc(-c2cc(Cl)ccc2NS(=O)(=O)c2ccc(OC)cc2)cc1`, the IC50 lay within 2000 to 10000 nM.
`CC(C)(C)c1ccc(S(=O)(=O)Nc2ccccc2-c2ncc(-c3ccccc3)[nH]2)cc1`: the IC50 lay in the range of 2000 to 10000 nM.
Same read-out and setting: the result for `COc1ccc(S(=O)(=O)Nc2ccc(Cl)cc2-c2cccc(OC)c2)cc1` reads 2000 to 10000 nM; that for `COc1ccc(S(=O)(=O)Nc2ccc(Cl)cc2-c2ccc(Cl)cc2)cc1`, 2000 to 10000 nM.
Regarding `COc1ccc(S(=O)(=O)Nc2ccc(Cl)cc2-c2ccc(C)cc2)cc1`, the IC50 is 2000 to 10000 nM.
Still for that read-out and setting: the result for `COc1ccc(S(=O)(=O)Nc2ccc(Cl)cc2-c2ccc(F)cc2)cc1` reads 2000 to 10000 nM.
